Assay results: ChEMBL document CHEMBL3885861, “Open TG-GATES”

Species on record: Rattus norvegicus
Experiment: Open TG-GATES - Regimen: Daily Repeat
Assay type: toxicity, organism-based, Sprague-Dawley
Set-up: regimen Daily Repeat, gender Male, age 6 weeks
Conditions: in vivo, po, 0 mg/kg, route gavage, dose level Control; for APTT / Bas / Eos / Fbg / Hb / Ht / Lym / MCH / MCHC / MCV / Mono / Neu / PT / Plat / RBC / Ret / WBC: tissue Blood; for KIDNEY_L / KIDNEY_R / KIDNEY_TOTAL: tissue Kidney; for LIVER: tissue Liver; for A/G / ALP / ALT / AST / BUN / CRE / Ca / Cl / DBIL / GLC / IP / K / LDH / Na / PL / RALB / TBIL / TC / TG / TP / gamma-GTP: tissue Plasma

## Cc1cccc(Nc2ccccc2C(=O)O)c1C [MEFENAMIC ACID]
72 h, time 3 day
  TERMINAL_BW: 233.8 g
  APTT: 19.9 s
  Bas: 0%
  Eos: 0.8%
  Fbg: 223.4 mg/dL
  Hb: 13.4 g/dL
  Ht: 38.3%
  Lym: 76%
  MCH: 21.9 pg
  MCHC: 35.1%
  MCV: 62.4 fL
  Mono: 2.6%
  Neu: 18.2%
  PT: 11.9 s
  Plat: 118.8 x10_4/uL
  RBC: 614 x10_4/ul
  Ret: 5.7%
  WBC: 105.7 x10_2/uL
  KIDNEY_L: 1 g
  KIDNEY_R: 1 g
  KIDNEY_TOTAL: 2 g
  LIVER: 11.2 g
  A/G: 1.6
  ALP: 1029.8 IU/L
  ALT: 35.4 IU/L
  AST: 64.2 IU/L
  BUN: 14.4 mg/dL
  CRE: 0.4 mg/dL
  Ca: 11 mg/dL
  Cl: 103.2 meq/L
  DBIL: 0.088 mg/dL
  GLC: 193.2 mg/dL
  IP: 7.6 mg/dL
  K: 4.2 meq/L
  LDH: 173 IU/L
  Na: 141 meq/L
  PL: 143.6 mg/dL
  RALB: 3.5 g/dL
  TBIL: 0.1 mg/dL
  TC: 70.6 mg/dL
  TG: 87.4 mg/dL
  TP: 5.6 g/dL
  gamma-GTP: 1 IU/L
[…], time 7 day
  TERMINAL_BW: 261.7 g
  APTT: 18.5 s
  Bas: 0%
  Eos: 0.8%
  Fbg: 219.2 mg/dL
  Hb: 13.8 g/dL
  Ht: 39.1%
  Lym: 81.4%
  MCH: 21.3 pg
  MCHC: 35.5%
  MCV: 60.1 fL
  Mono: 2.8%
  Neu: 13.4%
  PT: 11.7 s
  Plat: 121.6 x10_4/uL
  RBC: 650.6 x10_4/ul
  Ret: 4.7%
  WBC: 105 x10_2/uL
  KIDNEY_L: 1.1 g
  KIDNEY_R: 1.1 g
  KIDNEY_TOTAL: 2.2 g
  LIVER: 11.4 g
  A/G: 1.5
  ALP: 908 IU/L
  ALT: 38.8 IU/L
  AST: 69.4 IU/L
  BUN: 14.8 mg/dL
  CRE: 0.4 mg/dL
  Ca: 10.6 mg/dL
  Cl: 103.4 meq/L
  DBIL: 0.07 mg/dL
  GLC: 229.4 mg/dL
  IP: 6.9 mg/dL
  K: 3.8 meq/L
  LDH: 181 IU/L
  Na: 140.4 meq/L
  PL: 135.4 mg/dL
  RALB: 3.3 g/dL
  TBIL: 0.1 mg/dL
  TC: 71 mg/dL
  TG: 68.2 mg/dL
  TP: 5.6 g/dL
  gamma-GTP: 1 IU/L
[…], time 14 day
  TERMINAL_BW: 316.1 g
  APTT: 20.6 s
  Bas: 0%
  Eos: 1%
  Fbg: 228.8 mg/dL
  Hb: 14.3 g/dL
  Ht: 40.5%
  Lym: 76.4%
  MCH: 21.4 pg
  MCHC: 35.2%
  MCV: 60.8 fL
  Mono: 2.2%
  Neu: 18.6%
  PT: 12.1 s
  Plat: 108.8 x10_4/uL
  RBC: 667.4 x10_4/ul
  Ret: 4.2%
  WBC: 111.1 x10_2/uL
  KIDNEY_L: 1.2 g
  KIDNEY_R: 1.2 g
  KIDNEY_TOTAL: 2.4 g
  LIVER: 13.7 g
  A/G: 1.5
  ALP: 880 IU/L
  ALT: 31 IU/L
  AST: 58.8 IU/L
  BUN: 16 mg/dL
  CRE: 0.5 mg/dL
  Ca: 10.5 mg/dL
  Cl: 103 meq/L
  DBIL: 0.092 mg/dL
  GLC: 233.6 mg/dL
  IP: 7.1 mg/dL
  K: 3.9 meq/L
  LDH: 154.4 IU/L
  Na: 140.6 meq/L
  PL: 142.8 mg/dL
  RALB: 3.4 g/dL
  TBIL: 0.2 mg/dL
  TC: 73.4 mg/dL
  TG: 101.4 mg/dL
  TP: 5.6 g/dL
  gamma-GTP: 0.8 IU/L
[…], time 28 day
  TERMINAL_BW: 409.8 g
  APTT: 19.1 s
  Bas: 0%
  Eos: 1%
  Fbg: 249 mg/dL
  Hb: 15.3 g/dL
  Ht: 43.8%
  Lym: 81.4%
  MCH: 20.1 pg
  MCHC: 35%
  MCV: 57.4 fL
  Mono: 2%
  Neu: 14.4%
  PT: 11.8 s
  Plat: 111.8 x10_4/uL
  RBC: 763.4 x10_4/ul
  Ret: 2.7%
  WBC: 91.7 x10_2/uL
  KIDNEY_L: 1.4 g
  KIDNEY_R: 1.4 g
  KIDNEY_TOTAL: 2.9 g
  LIVER: 17.3 g
  A/G: 1.3
  ALP: 665 IU/L
  ALT: 33.4 IU/L
  AST: 56.6 IU/L
  BUN: 18.8 mg/dL
  CRE: 0.5 mg/dL
  Ca: 10.6 mg/dL
  Cl: 103.4 meq/L
  DBIL: 0.1 mg/dL
  GLC: 242.8 mg/dL
  IP: 7 mg/dL
  K: 3.8 meq/L
  LDH: 111.2 IU/L
  Na: 140.6 meq/L
  PL: 151.8 mg/dL
  RALB: 3.6 g/dL
  TBIL: 0.2 mg/dL
  TC: 74.2 mg/dL
  TG: 141.4 mg/dL
  TP: 6.2 g/dL
  gamma-GTP: 1.6 IU/L
